According to patent US11542239B2, “Elagolix sodium compositions and processes” (AbbVie Inc., priority 2018, dated 2023):

Legend:
Assay type in all cases: physicochemical
[1] = Flow properties, Schulze ring shear tester (flow function coefficient); details: isolated amorphous elagolix sodium powder, ffc=σ/fc
Procedure: Flow properties of each sample were characterized using a Schulze ring shear tester RST-XS (Dietmar Schulze Schuttgutmesstechnik, Wolfenbiittel, Germany). A standard annular cell of a cross-sectional area of 24 cm^2 and a volume of 30 cm^3 is used to measure the yield loci. All experiments were performed under ambient conditions immediately after the sample was removed from the sample container. During each measurement, the powder sample was first pre-sheared under a pre-consolidation stress of 1 kPa until a steady-state was reached. The pre-sheared powder was then subjected to shear under four normal stress levels of […] to obtain the yield locus (plot of shear stress at failure as a function of the normal stress). Between each shear points, the sample was pre-consolidated at 1 kPa. From the yield locus, the major principle stress (σ) and unconfined yield strength (fc) were derived by drawing two critical Mohr stress circles with the software RST-CONTROL 95 (Dietmar Schulze Schuttgiit-messtechnik, Wolfenbiittel, Germany). The major principle stress (σ) was obtained from the Mohr stress circle which is tangential to the yield locus and intersects at the point of normal and shear stresses at steady state flow. The unconfined yield strength (fc) was obtained from the Mohr stress circle which is tangential to the yield locus and runs through the origin. Flow function coefficient (ffc=σ/fc) was used to characterize the flow of the powder sample.

[2] = BET specific surface area from nitrogen adsorption isotherm; details: isolated amorphous elagolix sodium powder, precipitation/isolation conditions vary per example
Procedure: The BET (Brunauer, Emmett and Teller) specific surface area was determined from nitrogen adsorption isotherm at 77° K using a surface area analyzer (Tristar 3020, Micromeritics, Norcross, Ga.). A sample of approximately 1-2 g was first outgassed under vacuum for 2 hours at 50° C. prior to nitrogen adsorption experiment. The multipoint measurement method was used according to USP <846>. The quantity adsorbed was measured between 0.05 and 0.3 relative pressure. A minimum of 5 data points between this pressure range was determined to obtain the specific surface area using the BET equation.

[3] = Dry glass transition temperature of amorphous form
[4] = Bulk density in a graduated cylinder; details: isolated amorphous elagolix sodium powder
Procedure: The bulk density of the sample was obtained by measurement in a graduated cylinder. A 50 mL graduated cylinder (readable to 1 mL) was used in all measurement. First, the tared weight of the cylinder was obtained with a balance (readable to ±0.01 g). Sufficient amount of sample was then transferred into the cylinder, gently to avoid compaction of the sample, to a volume between 30 and 50 mL. The total weight of the sample and cylinder was then measured with the balance (readable to ±0.01 g), and the net sample weight was calculated. The bulk density is the weight of the sample divided by the apparent volume (to the nearest graduated unit).

[5] = Particle size distribution by laser diffraction (wet dispersion); details: isolated amorphous elagolix sodium powder
Procedure: Particle size distribution was measured by laser diffraction using a Malvern Mastersizer 2000S (Malvern Panalytical Ltd., Malvern, United Kingdom) in the wet dispersion mode. The liquid dispersion accessory was first filled with a solution of 0.025% w/v lecithin in HPLC n-heptane. After laser background intensity was measured, approximately 40 mg of sample was added directly to the liquid dispersion accessory to obtain a target laser obscuration between 5 and 22%. Particle size distribution measurement was started immediately upon addition of the sample. The following method parameters were used: Calculation theory—Mie; Measurement model—general purpose; Measurement sensitivity—normal; Dispersant refractive index—1.39; Background time—30 s; Measurement time—30 s; Stirrer speed—1500 rpm; Measurement cycle—1.

## COc1cccc(-c2c(C)n(Cc3c(F)cccc3C(F)(F)F)c(=O)n(C[C@H](NCCCC(=O)[O-])c3ccccc3)c2=O)c1F.[Na+] [Compound (I), sodium 4-({(1R)-2-[5-(2-fluoro-3-methoxyphenyl)-3-{[2-fluoro-6-(trifluoromethyl)phenyl]methyl}-4-methyl-2,6-dioxo-3,6-dihydropyrimidin-1(2H)-yl]-1-phenylethyl}amino)butanoate]
[1]; listed as Example 14
  flow function coefficient (ffc): 1.8
[1]; listed as Example 15
  flow function coefficient (ffc): 2.8
[1]; listed as Example 17
  flow function coefficient (ffc): 1.2
[1]; listed as Example 18
  flow function coefficient (ffc): 6.8
[2]; listed as Example 14
  specific surface area: 10.4 m^2/g
[2]; listed as Example 15
  specific surface area: 49.0 m^2/g
[2]; listed as Example 16
  specific surface area: 0.3 m^2/g
[2]; listed as Example 17
  specific surface area: 35.3 m^2/g
[2]; listed as Example 18
  specific surface area: 32.2 m^2/g
[3]
  dry glass transition temperature (Tg): about 108 °C
[4]; listed as Example 17
  bulk density: 0.17 g/mL
[4]; listed as Example 18
  bulk density: 0.33 g/mL
[5]; listed as Example 14
  volume-averaged particle size Dv10: 9 μm
[5]; listed as Example 15
  volume-averaged particle size Dv10: 17 μm
[5]; listed as Example 17
  volume-averaged particle size Dv10: 6 μm
[5]; listed as Example 18
  volume-averaged particle size Dv10: 204 μm
